Among the data in patent US6180625A, “Heterocyclic compounds regulating clotting” (Novo Nordisk A/S, priority 1998, dated 2001) are IC50 and half-life values, retold here.

For one data set, the target named is T1, fVIIa/TF (Homo sapiens, UniProt P08709).
T1 construct: Single-chain fVII may be converted to two-chain fVIIa by factor Xa, factor XIIa, factor IXa, fVIIa or thrombin in vitro
Nature of the data set: fX activation assay. It counts as biochemical. The note with it: 100 pM fVIIa, 5 pM TF, 175 nM fX, 5-min incubation, S-2765 substrate, read-out: IC50 TF/FVII/FX. Here is the method:
Inhibitory Compounds are Identified in a fX Activation Assay:
The compounds are dissolved in DMSO and mixed with a solution of fVIIa in Ca^2 +-containing buffer (1+5). 30 μl of this mixture was then mixed with 45 μl TF (relipidated in PC/PS vesicles) and 25 μl of a solution containing fX, all in Ca^2 +-containing buffer. This gives final concentrations of 100 pM fVIIa, 5 pM TF, 175 nM fX and various concentrations of the compounds. After a 5-min incubation, the fVIIa/TF-catalyzed activation of fX is terminated by the addition of 50 μl buffer containing enough EDTA to give an excess over the Ca^2+ ions present. 50 μl of a 2-mM solution of S-2765 (fXa substrate) is then added and the fXa formed is allowed to hydrolyze the substrate for 10 minutes during which the absorbance at 405 nm is continuously monitored in a SPECTRAmax™ 340 plate reader. The slope of the absorption curve is compared to that of a control where DMSO alone was added to fVIIa/TF/fX.
IC50 TF/FVII/FX: The IC50 value in μM found from the FX activation assay

For data set [1] the following is noted: blood; cited from earlier work.

T1 sequence (P08709 213-466 limits assumed): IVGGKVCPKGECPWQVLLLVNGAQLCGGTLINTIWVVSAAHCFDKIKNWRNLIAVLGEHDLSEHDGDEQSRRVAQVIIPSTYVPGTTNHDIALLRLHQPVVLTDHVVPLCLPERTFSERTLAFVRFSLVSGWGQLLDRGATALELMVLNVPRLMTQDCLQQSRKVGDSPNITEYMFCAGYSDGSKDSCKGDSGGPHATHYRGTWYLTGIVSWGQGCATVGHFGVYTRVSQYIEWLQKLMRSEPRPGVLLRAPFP
T1 sequence (P08709 61-212 limits assumed): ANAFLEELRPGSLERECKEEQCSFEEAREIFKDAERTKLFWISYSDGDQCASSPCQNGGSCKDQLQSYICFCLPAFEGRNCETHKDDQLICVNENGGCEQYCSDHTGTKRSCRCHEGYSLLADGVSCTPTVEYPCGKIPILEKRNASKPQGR
T1 sequence (P13726 33-295 partner): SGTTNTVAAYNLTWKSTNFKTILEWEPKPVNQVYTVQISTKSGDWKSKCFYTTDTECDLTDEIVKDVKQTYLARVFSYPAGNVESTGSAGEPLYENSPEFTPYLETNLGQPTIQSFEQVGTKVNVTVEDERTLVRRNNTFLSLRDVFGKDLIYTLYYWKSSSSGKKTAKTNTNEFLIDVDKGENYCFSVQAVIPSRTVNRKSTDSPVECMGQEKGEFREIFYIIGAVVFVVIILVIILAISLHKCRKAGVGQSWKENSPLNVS

Take `O=c1oc(-c2ccccc2[N+](=O)[O-])nc2cccc([N+](=O)[O-])c12` [Example 83, 5-Nitro-2-(2-nitro-phenyl)-benzo[d][1,3]oxazin-4-one]: the IC50 at fVIIa/TF stood at 320 nM.
Take `Cc1cccc(-c2nc3ccccc3c(=O)o2)c1` [Example 13, 2-m-Tolyl-4H-3,1-benzoxazin-4-one]: the IC50 at fVIIa/TF was 600 nM.
Regarding `Cc1ccc2nc(-c3c(F)cccc3Cl)oc(=O)c2c1` [Example 41, 2-(2-Chloro-6-fluorophenyl)-6-methyl-4H-3,1-benzoxazin-4-one], the IC50 at fVIIa/TF was determined as 900 nM.
Still for that read-out and setting: the value for `O=c1oc(-c2cccnc2Cl)nc2cccc([N+](=O)[O-])c12` [Example 87, 2-(2-Chloro-pyridin-3-yl)-5-nitro-benzo[d][1,3]oxazin-4-one] was 2800 nM; that for `O=c1oc(-c2ccccc2F)nc2ccc(C(F)(F)F)cc12` [Example 95, 2-(2-Fluoro-phenyl)-6-trifluoromethyl-benzo[d][1,3]oxazin-4-one] was 3100 nM; that for `COc1ccc(Br)c(-c2nc3ccccc3c(=O)o2)c1` [Example 43, 2-(2-Bromo-5-methoxy-phenyl)-4H-3,1-benzoxazin-4-one] was 1100 nM.
heparin: the half-life result in data set [1] is “approximately 80 minutes”.
Take `COC(=O)c1cccc2nc(-c3ccccc3F)oc(=O)c12` [Example 75, 2-(2-Fluoro-phenyl)-4-oxo-4H-benzo[d][1,3]oxazine-5-carboxylic acid methyl ester]: on fVIIa/TF, the IC50 was determined as 5600 nM.
On the same count and under the same terms, the figure for `O=c1oc(-c2c(F)cccc2F)nc2cccc(Cl)c12` [Example 116, 5-Chloro-2-(2,6-difluoro-phenyl)-benzo[d][1,3]oxazin-4-one] is 170 nM.
